pIC50: −log10 of the molar value.
What was measured:
Test in all cases: cells
HuO-3N1 = assay type: functional, cell-based, Homo sapiens; details: Homo sapiens, HuO-3N1;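 also: cell viability readout used to measure how strongly compounds suppress proliferation of human HuO-3N1 cells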
Description: SANGER: Inhibition of human HuO-3N1 cell growth in a cell viability assay.

SW756 = assay type: functional, cell-based, Homo sapiens; details: Homo sapiens, SW756;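 also: growth inhibition of human SW756 cells, read out with a cell viability assay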
Description: SANGER: Inhibition of human SW756 cell growth in a cell viability assay.

KYSE-410 = assay type: functional, cell-based, Homo sapiens; details: Homo sapiens, KYSE-410;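 also: growth inhibition of KYSE-410 cells, measured through a cell viability readout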
Description: SANGER: Inhibition of human KYSE-410 cell growth in a cell viability assay.

MFM-223 = assay type: functional, cell-based, Homo sapiens; details: Homo sapiens, MFM-223
Description: SANGER: Inhibition of human MFM-223 cell growth in a cell viability assay.

HAL-01 = assay type: functional, cell-based; details: Homo sapiens;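 also: growth inhibition of human HAL-01 cells, read out with a cell viability assay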
Description: SANGER: Inhibition of human HAL-01 cell growth in a cell viability assay.

MCF7 = assay type: functional, cell-based, Homo sapiens; details: Homo sapiens, MCF7;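 also: growth inhibition of human MCF7 cells, read out with a cell viability assay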
Description: SANGER: Inhibition of human MCF7 cell growth in a cell viability assay.

EC-GI-10 = assay type: functional, cell-based, Homo sapiens; details: Homo sapiens, EC-GI-10
Description: SANGER: Inhibition of human EC-GI-10 cell growth in a cell viability assay.

SK-N-DZ = assay type: functional, cell-based, Homo sapiens; details: Homo sapiens, SK-N-DZ;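 also: growth inhibition of the cancer cell line, read out through a viability assay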
Description: SANGER: Inhibition of human SK-N-DZ cell growth in a cell viability assay.

NCI-H1651 = assay type: functional, cell-based, Homo sapiens; details: Homo sapiens, NCI-H1651;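 also: Read-out is a cell viability assay, with IC50 expressing inhibition of NCI-H1651 cell growth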
Description: SANGER: Inhibition of human NCI-H1651 cell growth in a cell viability assay.

NCI-H1792 = assay type: functional, cell-based, Homo sapiens; details: Homo sapiens, NCI-H1792;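 also: growth inhibition of human NCI-H1792 cells, read out as cell viability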
Description: SANGER: Inhibition of human NCI-H1792 cell growth in a cell viability assay.

EW-18 = assay type: functional, cell-based; details: Homo sapiens;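 also: growth inhibition of EW-18 cells, read out by a cell viability assay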
Description: SANGER: Inhibition of human EW-18 cell growth in a cell viability assay.

GMS-10 = assay type: functional, cell-based, Homo sapiens; details: Homo sapiens, GMS-10;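 also: growth inhibition of GMS-10 cells, read out as cell viability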
Description: SANGER: Inhibition of human GMS-10 cell growth in a cell viability assay.

NCI-H82 = assay type: functional, cell-based; details: Homo sapiens;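 also: growth inhibition of NCI-H82 cells, measured with a cell viability readout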
Description: SANGER: Inhibition of human NCI-H82 cell growth in a cell viability assay.

TE-12 = assay type: functional, cell-based; details: Homo sapiens;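 also: growth inhibition of TE-12 cells, read out by a cell viability assay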
Description: SANGER: Inhibition of human TE-12 cell growth in a cell viability assay.

TE-1 = assay type: functional, cell-based, Homo sapiens; details: Homo sapiens, TE-1
Description: SANGER: Inhibition of human TE-1 cell growth in a cell viability assay.

DSH1 = assay type: functional, cell-based, Homo sapiens; details: Homo sapiens, DSH1;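 also: growth inhibition of human DSH1 cells, measured with a cell viability readout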
Description: SANGER: Inhibition of human DSH1 cell growth in a cell viability assay.

NCI-H1648 = assay type: functional, cell-based, Homo sapiens; details: Homo sapiens, NCI-H1648;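 also: cell viability assay measuring inhibition of NCI-H1648 cell growth, from the Sanger screening data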
Description: SANGER: Inhibition of human NCI-H1648 cell growth in a cell viability assay.

A673 = assay type: functional, cell-based, Homo sapiens; details: Homo sapiens, A673;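 also: growth inhibition of human A673 cells, read out through a cell viability assay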
Description: SANGER: Inhibition of human A673 cell growth in a cell viability assay.

BCPAP = assay type: functional, cell-based, Homo sapiens; details: Homo sapiens, BCPAP;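 also: growth inhibition of BCPAP cells, read out in a cell viability assay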
Description: SANGER: Inhibition of human BCPAP cell growth in a cell viability assay.

ES3 = assay type: functional, cell-based, Homo sapiens; details: Homo sapiens, ES3;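 also: growth inhibition of ES3 cells, read out with a cell viability assay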
ASPC1 = assay type: functional, cell-based, Homo sapiens; details: Homo sapiens, ASPC1;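 also: growth inhibition of AsPC-1 cells, read out with a cell viability assay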
Description: SANGER: Inhibition of human AsPC-1 cell growth in a cell viability assay.

HEL = assay type: functional, cell-based, Homo sapiens; details: Homo sapiens, HEL;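 also: growth inhibition of HEL cells, read out with a cell viability assay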
Description: SANGER: Inhibition of human HEL cell growth in a cell viability assay.

A498 = assay type: functional, cell-based, Homo sapiens; details: Homo sapiens, A498;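 also: growth inhibition of human A498 cells, read out with a cell viability assay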
Description: SANGER: Inhibition of human A498 cell growth in a cell viability assay.

MOLT-4 = assay type: functional, cell-based; details: Homo sapiens;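 also: growth inhibition of MOLT-4 cells, determined with a cell viability readout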
Description: SANGER: Inhibition of human MOLT-4 cell growth in a cell viability assay.

MHH-PREB-1 = assay type: functional, cell-based; details: Homo sapiens;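 also: cell viability assay measuring inhibition of proliferation of human MHH-PREB-1 cells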
Description: SANGER: Inhibition of human MHH-PREB-1 cell growth in a cell viability assay.

LCLC-97TM1 = assay type: functional, cell-based, Homo sapiens; details: Homo sapiens, LCLC-97TM1;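 also: cell viability assay measuring growth inhibition of human LCLC-97TM1 cells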
Description: SANGER: Inhibition of human LCLC-97TM1 cell growth in a cell viability assay.

GP5d = assay type: functional, cell-based, Homo sapiens; details: Homo sapiens, GP5d;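 also: growth inhibition of human GP5d cells, read out with a cell viability assay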
Description: SANGER: Inhibition of human GP5d cell growth in a cell viability assay.

MDA-MB-175-VII = assay type: functional, cell-based, Homo sapiens; details: Homo sapiens, MDA-MB-175-VII
ONS-76 = assay type: functional, cell-based, Homo sapiens; details: Homo sapiens, ONS-76;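 also: growth inhibition of human ONS-76 cells, read out with a cell viability assay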
Description: SANGER: Inhibition of human ONS-76 cell growth in a cell viability assay.

697 = assay type: functional, cell-based; details: Homo sapiens
Description: SANGER: Inhibition of human 697 cell growth in a cell viability assay.

MZ7-mel = assay type: functional, cell-based, Homo sapiens; details: Homo sapiens, MZ7-mel;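 also: growth inhibition of human MZ7-mel cells, measured by a cell viability assay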
Description: SANGER: Inhibition of human MZ7-mel cell growth in a cell viability assay.

BHY = assay type: functional, cell-based, Homo sapiens; details: Homo sapiens, BHY;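 also: cell growth inhibition read out by a viability assay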
HDLM-2 = assay type: functional, cell-based; details: Homo sapiens;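 also: cell viability assay measuring suppression of HDLM-2 proliferation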
Description: SANGER: Inhibition of human HDLM-2 cell growth in a cell viability assay.

HCC1806 = assay type: functional, cell-based, Homo sapiens; details: Homo sapiens, HCC1806;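 also: growth inhibition of the cancer cell line, determined with a cell viability assay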
Description: SANGER: Inhibition of human HCC1806 cell growth in a cell viability assay.

GOTO = assay type: functional, cell-based, Homo sapiens; details: Homo sapiens, GOTO;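 also: growth inhibition of GOTO cells, read out by a cell viability assay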
Description: SANGER: Inhibition of human GOTO cell growth in a cell viability assay.

NMC-G1 = assay type: functional, cell-based, Homo sapiens; details: Homo sapiens, NMC-G1;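 also: growth inhibition of the NMC-G1 cell line, measured with a cell viability read-out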
Description: SANGER: Inhibition of human NMC-G1 cell growth in a cell viability assay.

CAL-39 = assay type: functional, cell-based, Homo sapiens; details: Homo sapiens, CAL-39;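 also: cell viability assay measuring growth inhibition of CAL-39 cells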
Description: SANGER: Inhibition of human CAL-39 cell growth in a cell viability assay.

H4 = assay type: functional, cell-based; details: Homo sapiens
Description: SANGER: Inhibition of human H4 cell growth in a cell viability assay.

SK-MEL3 = assay type: functional, cell-based, Homo sapiens, SK-MEL-3; details: Homo sapiens, SK-MEL3;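 also: growth inhibition of human SK-MEL-3 cells, read out with a cell viability assay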
Description: SANGER: Inhibition of human SK-MEL-3 cell growth in a cell viability assay.

KYSE-450 = assay type: functional, cell-based; details: Homo sapiens;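 also: cell growth inhibition measured by a viability assay in human KYSE-450 cells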
Description: SANGER: Inhibition of human KYSE-450 cell growth in a cell viability assay.

NCI-H1437 = assay type: functional, cell-based, Homo sapiens; details: Homo sapiens, NCI-H1437;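 also: growth inhibition of human NCI-H1437 cells, read out by a cell viability assay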
Description: SANGER: Inhibition of human NCI-H1437 cell growth in a cell viability assay.

CAL-54 = assay type: functional, cell-based, Homo sapiens; details: Homo sapiens, CAL-54;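 also: growth inhibition of CAL-54 cells, read out by a viability measurement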
Description: SANGER: Inhibition of human CAL-54 cell growth in a cell viability assay.

M059J = assay type: functional, cell-based, Homo sapiens; details: Homo sapiens, M059J;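 also: growth inhibition of M059J cells, read out with a cell viability assay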
Description: SANGER: Inhibition of human M059J cell growth in a cell viability assay.

GI-ME-N = assay type: functional, cell-based, Homo sapiens; details: Homo sapiens, GI-ME-N;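 also: growth inhibition of human GI-ME-N cells, read out with a cell viability assay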
Description: SANGER: Inhibition of human GI-ME-N cell growth in a cell viability assay.

SK-MEL-2 = assay type: functional, cell-based, Homo sapiens; details: Homo sapiens, SK-MEL-2;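 also: growth inhibition of human SK-MEL-2 cells measured with a cell viability assay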
Description: SANGER: Inhibition of human SK-MEL-2 cell growth in a cell viability assay.

COLO-800 = assay type: functional, cell-based, Homo sapiens; details: Homo sapiens, COLO-800;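 also: growth inhibition of COLO-800 cells, read out with a cell viability assay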
Description: SANGER: Inhibition of human COLO-800 cell growth in a cell viability assay.

Ca-Ski = assay type: functional, cell-based; details: Homo sapiens;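 also: cell viability assay measuring inhibition of Ca-Ski cell growth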
Description: SANGER: Inhibition of human Ca-Ski cell growth in a cell viability assay.

CAL-33 = assay type: functional, cell-based, Homo sapiens; details: Homo sapiens, CAL-33;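 also: growth inhibition of CAL-33 cells, read out with a cell viability assay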
Description: SANGER: Inhibition of human CAL-33 cell growth in a cell viability assay.

NB5 = assay type: functional, cell-based, Homo sapiens; details: Homo sapiens, NB5;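 also: growth inhibition of NB5 cells, read out as cell viability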
Description: SANGER: Inhibition of human NB5 cell growth in a cell viability assay.

NCI-H1155 = assay type: functional, cell-based; details: Homo sapiens;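 also: cell growth inhibition measured by a viability assay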
Description: SANGER: Inhibition of human NCI-H1155 cell growth in a cell viability assay.

CCRF-CEM = assay type: functional, cell-based; details: Homo sapiens;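 also: inhibition of CCRF-CEM cell growth, measured by a cell viability assay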
Description: SANGER: Inhibition of human CCRF-CEM cell growth in a cell viability assay.

VMRC-RCZ = assay type: functional, cell-based; details: Homo sapiens;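 also: growth inhibition measured with a cell viability assay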
Description: SANGER: Inhibition of human VMRC-RCZ cell growth in a cell viability assay.

With `C=CCc1cccc(/C=N/NC(=O)CN2CCN(Cc3ccccc3)CC2)c1O` [PAC-1] the pIC50 (HuO-3N1) was < 5.59, the pIC50 (SW756) was < 5.59 and the pIC50 (KYSE-410) was 5.93. The pIC50 (MFM-223) was < 5.59, the pIC50 (HAL-01) was 6.10 and the pIC50 (MCF7) was < 5.59. For the same compound, the pIC50 (EC-GI-10) was < 5.59, the pIC50 (SK-N-DZ) was < 5.59 and the pIC50 (NCI-H1651) was < 5.59. The pIC50 (NCI-H1792) was < 5.59, the pIC50 (EW-18) was < 5.59 and the pIC50 (GMS-10) was < 5.59. The pIC50 (NCI-H82) was < 5.59, the pIC50 (TE-12) was < 5.59 and the pIC50 (TE-1) was < 5.59. For the same compound, the pIC50 (DSH1) was < 5.59, the pIC50 (NCI-H1648) was < 5.59 and the pIC50 (A673) was < 5.59. For the same compound, the pIC50 (BCPAP) was < 5.59, the pIC50 (ES3) was < 5.59 and the pIC50 (ASPC1) was < 5.59. For the same compound, the pIC50 (HEL) was < 5.59, the pIC50 (A498) was < 5.59 and the pIC50 (MOLT-4) was < 5.59. The pIC50 (MHH-PREB-1) was < 5.59, the pIC50 (LCLC-97TM1) was 5.85 and the pIC50 (GP5d) was < 5.59. For the same compound, the pIC50 (MDA-MB-175-VII) was < 5.59, the pIC50 (ONS-76) was < 5.59 and the pIC50 697 was 6.04. For the same compound, the pIC50 (MZ7-mel) was 5.59, the pIC50 (BHY) was < 5.59 and the pIC50 (HDLM-2) was 5.74. The pIC50 (HCC1806) was < 5.59, the pIC50 (GOTO) was < 5.59 and the pIC50 (NMC-G1) was < 5.59. For the same compound, the pIC50 (CAL-39) was < 5.59, the pIC50 (H4) was < 5.59 and the pIC50 (SK-MEL3) was < 5.59. The pIC50 (KYSE-450) was < 5.59, the pIC50 (NCI-H1437) was 5.65 and the pIC50 (CAL-54) was < 5.59. The pIC50 (M059J) was < 5.59, the pIC50 (GI-ME-N) was < 5.59 and the pIC50 (SK-MEL-2) was < 5.59. The pIC50 (COLO-800) was < 5.59, the pIC50 (Ca-Ski) was < 5.59 and the pIC50 (CAL-33) was < 5.59. For the same compound, the pIC50 (NB5) was < 5.59, the pIC50 (NCI-H1155) was < 5.59 and the pIC50 (CCRF-CEM) was 6.25. The pIC50 (VMRC-RCZ) was < 5.59.

With `Cc1ccc(Nc2nccc(N(C)c3ccc4c(C)n(C)nc4c3)n2)cc1S(N)(=O)=O` [PAZOPANIB] the pIC50 (HuO-3N1) was < 5.10, the pIC50 (SW756) was < 5.10 and the pIC50 (KYSE-410) was < 5.10. For the same compound, the pIC50 (MFM-223) was < 5.10, the pIC50 (HAL-01) was < 5.10 and the pIC50 (MCF7) was < 5.10. The pIC50 (EC-GI-10) was < 5.10, the pIC50 (SK-N-DZ) was 5.69 and the pIC50 (NCI-H1651) was < 5.10. The pIC50 (NCI-H1792) was < 5.10, the pIC50 (EW-18) was < 5.10 and the pIC50 (GMS-10) was < 5.10. The pIC50 (NCI-H82) was < 5.10, the pIC50 (TE-12) was < 5.10 and the pIC50 (TE-1) was < 5.10. For the same compound, the pIC50 (DSH1) was < 5.10, the pIC50 (NCI-H1648) was < 5.10 and the pIC50 (A673) was < 5.10. For the same compound, the pIC50 (BCPAP) was < 5.10, the pIC50 (ES3) was < 5.10 and the pIC50 (ASPC1) was < 5.10. The pIC50 (HEL) was < 5.10, the pIC50 (A498) was < 5.10 and the pIC50 (MOLT-4) was < 5.10. The pIC50 (MHH-PREB-1) was < 5.10, the pIC50 (LCLC-97TM1) was < 5.10 and the pIC50 (GP5d) was < 5.10. The pIC50 (MDA-MB-175-VII) was < 5.10, the pIC50 (ONS-76) was < 5.10 and the pIC50 697 was < 5.10. The pIC50 (MZ7-mel) was < 5.10, the pIC50 (BHY) was < 5.10 and the pIC50 (HDLM-2) was < 5.10. For the same compound, the pIC50 (HCC1806) was < 5.10, the pIC50 (GOTO) was < 5.10 and the pIC50 (NMC-G1) was 5.18. The pIC50 (CAL-39) was < 5.10, the pIC50 (H4) was 5.60 and the pIC50 (SK-MEL3) was < 5.10. The pIC50 (KYSE-450) was < 5.10, the pIC50 (NCI-H1437) was < 5.10 and the pIC50 (CAL-54) was 5.48. For the same compound, the pIC50 (M059J) was < 5.10, the pIC50 (GI-ME-N) was < 5.10 and the pIC50 (SK-MEL-2) was < 5.10. The pIC50 (COLO-800) was < 5.10, the pIC50 (Ca-Ski) was < 5.10 and the pIC50 (CAL-33) was < 5.10. The pIC50 (NB5) was < 5.10, the pIC50 (NCI-H1155) was < 5.10 and the pIC50 (CCRF-CEM) was < 5.10. The pIC50 (VMRC-RCZ) was < 5.10.
